In patent US11718601B2 (Bristol-Myers Squibb Company, priority 2021, dated 2023):

Tests used:
[1] = target: T1, Helios (Homo sapiens, UniProt Q96SW2+Q9UKS7); experiment: Helios Cellular Degradation Assay (Helios, Jurkat); assay type: cell-based; conditions: Jurkat cells, 72 h incubation, flow cytometry with Helios-PE antibody; read-out: Helios Jurkat IC50
T1 construct: endogenous in cells; host or cells: Jurkat cells
Method: (§1) Jurkat cells were plated at 80,000 cells/well in 40 μL RPMI+10% FBS in a 384 well cell culture plate prior to using acoustic dispensing technology for adding compound of interest. Cell cultures were incubated for 72 h at 37° C. and 5% CO2. In order to facilitate analysis, cell cultures were spun down at 200 rpm for 5 min and the supernatant was discarded. […] Subsequently, 30 μL of 1× Permeabilization buffer was added prior to centrifuging the cells and discarding the supernatant. Stained cells were resuspended in 25 μL of flow cytometry staining buffer (PBS+0.2% BSA) and analyzed using an Intellicyt Ique Plus flow cytometer.

[2] = target: T2, Ikaros (Homo sapiens, UniProt Q13422+Q96SW2); experiment: Helios Cellular Degradation Assay (Ikaros, Jurkat); assay type: cell-based; conditions: Jurkat cells, 72 h incubation, flow cytometry with Ikaros-Alexa488 antibody; read-out: Ikaros Jurkat IC50
T2 construct: endogenous in cells; host or cells: Jurkat cells
T2 sequence (Q13422 whole entry): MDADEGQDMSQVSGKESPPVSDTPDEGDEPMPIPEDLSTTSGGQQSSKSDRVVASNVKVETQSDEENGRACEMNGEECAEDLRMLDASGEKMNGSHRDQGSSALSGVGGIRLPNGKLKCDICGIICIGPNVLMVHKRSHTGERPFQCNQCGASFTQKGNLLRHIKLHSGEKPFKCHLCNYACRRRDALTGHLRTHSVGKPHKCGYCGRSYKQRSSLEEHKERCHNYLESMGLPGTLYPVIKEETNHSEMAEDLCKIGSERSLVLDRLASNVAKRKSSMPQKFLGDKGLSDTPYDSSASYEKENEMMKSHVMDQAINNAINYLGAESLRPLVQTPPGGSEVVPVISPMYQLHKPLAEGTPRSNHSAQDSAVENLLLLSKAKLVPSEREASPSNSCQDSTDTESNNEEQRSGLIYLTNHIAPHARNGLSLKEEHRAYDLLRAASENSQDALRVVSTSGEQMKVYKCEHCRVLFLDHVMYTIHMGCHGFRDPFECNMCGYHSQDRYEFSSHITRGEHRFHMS
T2 sequence (Q96SW2 whole entry): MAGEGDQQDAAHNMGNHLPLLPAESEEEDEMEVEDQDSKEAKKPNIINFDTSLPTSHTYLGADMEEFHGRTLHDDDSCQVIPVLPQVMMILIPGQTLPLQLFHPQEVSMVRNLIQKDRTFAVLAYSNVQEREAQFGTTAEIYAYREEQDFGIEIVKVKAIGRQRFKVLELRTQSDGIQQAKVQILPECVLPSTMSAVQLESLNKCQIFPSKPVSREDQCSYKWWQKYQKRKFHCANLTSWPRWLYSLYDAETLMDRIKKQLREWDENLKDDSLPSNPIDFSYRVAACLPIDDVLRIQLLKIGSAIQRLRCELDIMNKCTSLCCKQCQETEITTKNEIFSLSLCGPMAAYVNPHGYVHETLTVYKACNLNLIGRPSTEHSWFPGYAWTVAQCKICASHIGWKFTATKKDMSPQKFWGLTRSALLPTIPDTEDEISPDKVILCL
T2 sequence (Q16531 whole entry partner): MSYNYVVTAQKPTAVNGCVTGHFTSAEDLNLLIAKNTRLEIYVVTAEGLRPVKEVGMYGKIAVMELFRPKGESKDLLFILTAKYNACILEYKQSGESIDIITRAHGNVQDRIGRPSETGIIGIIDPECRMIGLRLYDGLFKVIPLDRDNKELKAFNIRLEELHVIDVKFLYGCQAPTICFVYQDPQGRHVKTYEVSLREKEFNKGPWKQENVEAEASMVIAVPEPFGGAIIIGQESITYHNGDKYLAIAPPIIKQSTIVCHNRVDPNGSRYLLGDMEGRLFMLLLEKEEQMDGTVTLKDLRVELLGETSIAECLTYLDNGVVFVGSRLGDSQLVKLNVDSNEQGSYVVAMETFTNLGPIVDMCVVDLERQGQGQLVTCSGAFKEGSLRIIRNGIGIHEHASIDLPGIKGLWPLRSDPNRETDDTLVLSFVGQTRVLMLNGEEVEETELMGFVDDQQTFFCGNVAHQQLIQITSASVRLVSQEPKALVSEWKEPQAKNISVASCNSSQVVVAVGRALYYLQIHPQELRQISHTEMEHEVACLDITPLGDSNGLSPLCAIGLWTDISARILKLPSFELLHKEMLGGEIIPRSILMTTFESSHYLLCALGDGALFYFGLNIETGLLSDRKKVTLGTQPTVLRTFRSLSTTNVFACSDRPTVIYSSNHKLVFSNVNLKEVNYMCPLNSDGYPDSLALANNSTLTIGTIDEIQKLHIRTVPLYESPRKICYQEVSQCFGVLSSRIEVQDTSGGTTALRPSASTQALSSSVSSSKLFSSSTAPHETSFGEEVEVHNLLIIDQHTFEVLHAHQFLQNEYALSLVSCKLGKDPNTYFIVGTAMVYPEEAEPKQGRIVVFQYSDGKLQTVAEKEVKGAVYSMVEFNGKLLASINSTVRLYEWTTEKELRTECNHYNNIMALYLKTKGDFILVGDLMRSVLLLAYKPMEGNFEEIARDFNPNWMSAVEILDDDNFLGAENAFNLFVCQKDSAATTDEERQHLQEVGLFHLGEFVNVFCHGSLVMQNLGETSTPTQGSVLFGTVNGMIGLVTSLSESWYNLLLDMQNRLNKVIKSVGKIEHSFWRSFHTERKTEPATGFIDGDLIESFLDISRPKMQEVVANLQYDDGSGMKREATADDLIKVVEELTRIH
Method: as §1

T1 sequence (Q9UKS7 whole entry): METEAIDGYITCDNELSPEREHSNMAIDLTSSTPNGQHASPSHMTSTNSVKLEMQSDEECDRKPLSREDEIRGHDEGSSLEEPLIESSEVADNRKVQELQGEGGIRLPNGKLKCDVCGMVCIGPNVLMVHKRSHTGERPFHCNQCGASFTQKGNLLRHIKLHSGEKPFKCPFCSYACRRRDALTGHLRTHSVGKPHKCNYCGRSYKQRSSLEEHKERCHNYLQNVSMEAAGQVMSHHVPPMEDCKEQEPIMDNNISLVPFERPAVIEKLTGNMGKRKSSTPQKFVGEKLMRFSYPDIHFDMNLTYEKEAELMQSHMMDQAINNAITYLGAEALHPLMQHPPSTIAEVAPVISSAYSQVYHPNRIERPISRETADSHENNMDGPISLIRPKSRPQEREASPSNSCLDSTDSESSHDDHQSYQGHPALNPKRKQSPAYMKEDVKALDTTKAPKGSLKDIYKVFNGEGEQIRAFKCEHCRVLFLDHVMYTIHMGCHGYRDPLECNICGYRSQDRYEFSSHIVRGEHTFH
T1 sequence (Q96SW2 whole entry): as the sequence (Q96SW2 whole entry) above
T1 sequence (Q16531 whole entry partner): as the sequence (Q16531 whole entry partner) above

Row | SMILES | DC50 [1] | DC50 [2]
1 | Cc1cc(-c2ccc3c(c2)C(C)N(C2CCC(=O)NC2=O)C3=O)nc(N)c1F (single isomer, unassigned) [Example 22] | 200 nM | > 10000 nM
2 | Cc1cc(-c2ccc3c(c2C)CN(C2CCC(=O)NC2=O)C3=O)nc(N)c1C#N (stereo not shown) [Example 1, 2-amino-6-(2-(2,6-dioxopiperidin-3-yl)-4-methyl-1-oxoisoindolin-5-yl)-4-methylnicotinonitrile] | 1400 nM | > 10000 nM
3 | Cc1cc(-c2ccc3c(c2F)CN(C2CCC(=O)NC2=O)C3=O)nc(N)c1C#N (stereo not shown) [Example 3, 2-Amino-6-(2-(2,6-dioxopiperidin-3-yl)-4-fluoro-1-oxoisoindolin-5-yl)-4-methylnicotinonitrile] | 3 nM | > 10000 nM
4 | Cc1cc(-c2ccc3c(c2F)CN(C2CCC(=O)NC2=O)C3=O)nc(N)c1C (stereo not shown) [Example 7, 3-(5-(6-Amino-4,5-dimethylpyridin-2-yl)-4-fluoro-1-oxoisoindolin-2-yl)piperidine-2,6-dione] | 1 nM | > 10000 nM
5 | CNc1nc(-c2ccc3c(c2)[C@H](C)N(C2CCC(=O)NC2=O)C3=O)cc(C)c1C (stereo partly drawn) [Example 12, 3-((S)-5-(4,5-Dimethyl-6-(methylamino)pyridin-2-yl)-3-methyl-1-oxoisoindolin-2-yl) piperidine-2,6-dione] | 33 nM | > 10000 nM
6 | Cc1cc(-c2ccc3c(c2F)CN(C2CCC(=O)NC2=O)C3=O)nc(N)c1F (stereo not shown) [Example 19, 3-(5-(6-Amino-5-fluoro-4-methylpyridin-2-yl)-4-fluoro-1-oxoisoindolin-2-yl)piperidine-2,6-dione] | 3.5 nM | > 10000 nM
7 | Cc1cc(N)nc(-c2ccc3c(c2F)CN(C2CCC(=O)NC2=O)C3=O)c1F (stereo not shown) [Example 20, 3-(5-(6-Amino-3-fluoro-4-methylpyridin-2-yl)-4-fluoro-1-oxoisoindolin-2-yl)piperidine-2,6-dione] |  | > 10000 nM
8 | Cc1cc(-c2ccc3c(c2F)[C@@H](C)N(C2CCC(=O)NC2=O)C3=O)nc(N)c1C#N (stereo partly drawn) [Example 23, 2-Amino-6-((3R)-2-(2,6-dioxopiperidin-3-yl)-4-fluoro-3-methyl-1-oxoisoindolin-5-yl)-4-methylnicotinonitrile] | 35 nM | > 10000 nM
9 | Cc1cc(N)nc(-c2ccc3c(c2F)[C@@H](C)N(C2CCC(=O)NC2=O)C3=O)c1 (stereo partly drawn) [Example 24, 3-((R)-5-(6-Amino-4-methylpyridin-2-yl)-4-fluoro-3-methyl-1-oxoisoindolin-2-yl) piperidine-2,6-dione] | 160 nM | > 10000 nM
10 | C[C@@H]1c2c(ccc(-c3cc(C(F)(F)F)cc(N)n3)c2F)C(=O)N1C1CCC(=O)NC1=O (stereo partly drawn) [Example 25, 3-((R)-5-(6-Amino-4-(trifluoromethyl)pyridin-2-yl)-4-fluoro-3-methyl-1-oxoisoindolin-2-yl)piperidine-2,6-dione] | 1300 nM | > 10000 nM
11 | Cc1cc(-c2ccc3c(c2F)[C@@H](C)N(C2CCC(=O)NC2=O)C3=O)nc(N)c1F (stereo partly drawn) [Example 29, 3-((R)-5-(6-amino-5-fluoro-4-methylpyridin-2-yl)-4-fluoro-3-methyl-1-oxoisoindolin-2-yl)piperidine-2,6-dione] | 24 nM | > 10000 nM
12 | Cc1cc(-c2ccc3c(c2F)[C@H](C)N(C2CCC(=O)NC2=O)C3=O)nc(N)c1F (stereo partly drawn) [Example 30, 3-((S)-5-(6-Amino-5-fluoro-4-methylpyridin-2-yl)-4-fluoro-3-methyl-1-oxoisoindolin-2-yl)piperidine-2,6-dione] | 700 nM | > 10000 nM

Further lines, results first:

Row | DC50 [1] | DC50 [2] | SMILES
13 | 3 nM | > 10000 nM | Cc1cc(-c2ccc3c(c2)[C@@H](C)N(C2CCC(=O)NC2=O)C3=O)nc(N)c1C (single isomer, unassigned) [Example 9]
14 | 310 nM | > 10000 nM | Cc1cc(-c2ccc3c(c2)[C@H](C)N(C2CCC(=O)NC2=O)C3=O)nc(N)c1C#N (single isomer, unassigned) [Example 10]
15 | 6 nM | > 10000 nM | Cc1cc(-c2ccc3c(c2)[C@@H](C)N(C2CCC(=O)NC2=O)C3=O)nc(N)c1C#N (single isomer, unassigned) [Example 11]
16 | 2800 nM | > 10000 nM | CNc1nc(-c2ccc3c(c2)[C@@H](C)N(C2CCC(=O)NC2=O)C3=O)cc(C)c1C (single isomer, unassigned) [Example 13]
17 | 1000 nM | > 10000 nM | CNc1nc(-c2ccc3c(c2)[C@H](C)N(C2CCC(=O)NC2=O)C3=O)cc(C)c1C#N (single isomer, unassigned) [Example 14]
18 | 57 nM | > 10000 nM | CNc1nc(-c2ccc3c(c2)[C@@H](C)N(C2CCC(=O)NC2=O)C3=O)cc(C)c1C#N (single isomer, unassigned) [Example 15]
19 | 5.8 nM | > 10000 nM | Cc1cc(-c2ccc3c(c2)C(C)N(C2CCC(=O)NC2=O)C3=O)nc(N)c1F (single isomer, unassigned) [Example 21]
